Data as given in US20150197492A1, “NOVEL INDENO[1,2-c]QUINOLIN-11-ONE DERIVATIVES, PREPARATION METHOD AND APPLICATION THEREOF” (National Defense Medical Center, priority 2014, published 2015).

How the values were obtained:
Assay type in all cases: cell-based
[1] = test system: SK-MEL-28; assay: cells; conditions: SK-MEL-28 (Melanoma), 10 μM, 48 hours
[2] = test system: A549/ATCC; assay: cells; conditions: A549/ATCC (Non-Small Cell Lung Cancer), 10 μM, 48 hours
[3] = test system: 55 to 60 cancer cell lines; conditions: 10 μM, 48 hours, all tested cell lines
[4] = test system: ACHN; assay: cells; conditions: ACHN (Renal Cancer), 10 μM, 48 hours
[5] = test system: IGROV1; assay: cells; conditions: IGROV1 (Ovarian Cancer), 10 μM, 48 hours
[6] = test system: NCI-H522; assay: cells; conditions: NCI-H522 (Non-Small Cell Lung Cancer), 10 μM, 48 hours
[7] = test system: 786-0; assay: cells; conditions: 786-0 (Renal Cancer), 10 μM, 48 hours
[8] = test system: NCI-H23; assay: cells; conditions: NCI-H23 (Non-Small Cell Lung Cancer), 10 μM, 48 hours
[9] = test system: MCF7; assay: cells; conditions: MCF7 (Breast Cancer), 10 μM, 48 hours
[10] = test system: OVCAR-4; assay: cells; conditions: OVCAR-4 (Ovarian Cancer), 10 μM, 48 hours
[11] = test system: SF-295; assay: cells; conditions: SF-295 (CNS Cancer), 10 μM, 48 hours
[12] = test system: UACC-257; assay: cells; conditions: UACC-257 (Melanoma), 10 μM, 48 hours
[13] = test system: CAKI-1; assay: cells; conditions: CAKI-1 (Renal Cancer), 10 μM, 48 hours
[14] = test system: MDA-MB-231/ATCC; assay: cells; conditions: MDA-MB-231/ATCC (Breast Cancer), 10 μM, 48 hours
[15] = test system: NCI-H460; assay: cells; conditions: NCI-H460 (Non-Small Cell Lung Cancer), 10 μM, 48 hours
[16] = test system: SK-MEL-5; assay: cells; conditions: SK-MEL-5 (Melanoma), 10 μM, 48 hours
[17] = test system: HOP-62; assay: cells; conditions: HOP-62 (Non-Small Cell Lung Cancer), 10 μM, 48 hours
[18] = test system: SNB-19; assay: cells; conditions: SNB-19 (CNS Cancer), 10 μM, 48 hours
[19] = test system: HL-60 (TB); assay: cells; conditions: HL-60 (TB) (Leukemia), 10 μM, 48 hours
[20] = test system: SR; assay: cells; conditions: SR (Leukemia), 10 μM, 48 hours
[21] = test system: BT-549; assay: cells; conditions: BT-549 (Breast Cancer), 10 μM, 48 hours
[22] = test system: SK-OV-3; assay: cells; conditions: SK-OV-3 (Ovarian Cancer), 10 μM, 48 hours
[23] = test system: CCRF-CEM; assay: cells; conditions: CCRF-CEM (Leukemia), 10 μM, 48 hours
[24] = test system: TK-10; assay: cells; conditions: TK-10 (Renal Cancer), 10 μM, 48 hours
[25] = test system: SW-620; assay: cells; conditions: SW-620 (Colon Cancer), 10 μM, 48 hours
[26] = test system: MDA-MB-435; assay: cells; conditions: MDA-MB-435 (Melanoma), 10 μM, 48 hours
[27] = test system: DU-145; assay: cells; conditions: DU-145 (Prostate Cancer), 10 μM, 48 hours
[28] = test system: human PC-3 cells; assay: Sulforhodamine B (SRB) assay, cytotoxicity against PC-3 cells; conditions: SRB assay, PC-3 cells
Protocol: Add 5% Fetal Bovine Serum (FBS) to 96-well plate and fix the cells with 10% TCA after 24 hours of incubation and add the compound (T0). Add DMSO and culture for another 48 hours and the cells are fixed in 0.4% (W/V), 10% TCA and SRB, and […]. Excess SRB is washed off by 1% acetic acid and cells stained with SRB are dissolved in 10 mmol/L Trizma base. The absorbance is measured at 515 nm. The treatment time is 0 (T0), control growth (C) and the increase of the compound (Tx) in the cells are shown below and are used to calculate the increase of the concentration of the compound in percentage. Growth inhibition (GI %) is calculated using the following formula 100−[(TX−T0)/(C−T0)]×100. The 50% growth inhibition concentration (IC50) is used to confirm the concentration of compound and thus results in 50% reduction of the treated cells which control the amount of total protein.
This part of experimental results are SRB assays measuring cytotoxicity of the 26 synthesized compounds against human PC-3 cells and are summarized in Table 1 and 2.

[29] = test system: U251; assay: cells; conditions: U251 (CNS Cancer), 10 μM, 48 hours

Structure (SMILES) | growth percentage [1] | growth percentage [2] | Mean (mean growth percentage of the tested cancer cell lines) [3] | growth percentage [4] | growth percentage [5] | growth percentage [6] | growth percentage [7] | growth percentage [8] | growth percentage [9] | growth percentage [12] | growth percentage [13] | growth percentage [14] | growth percentage [15] | growth percentage [16] | growth percentage [18] | growth percentage [19] | growth percentage [21] | growth percentage [22] | growth percentage [23] | growth percentage [25] | other results
CC1CCN(c2nc3ccccc3c3c2-c2ccc(Cl)cc2C3=O)CC1 [SJ-6, 9-Chloro-6-(4-methylpiperidin-1-yl)-11H-indeno[1,2-c]quinolin-11-one] | 105.21% | 101.69% | 96.2% | 94.75% | 94.36% | 98.45% | 102.73% | 90.42% | 64.65% | 106.47% | 83.89% | 90.96% | 101.21% | 98.52% | 103.87% | 98.84% | 95.52% | 99.78% | 104.33% | 88.89% | growth percentage [10]: 97.11%; growth percentage [11]: 96.18%; growth percentage [17]: 64.18%; growth percentage [20]: 98.51%; growth percentage [24]: 134.79%; growth percentage [26]: 104.53%; growth percentage [27]: 103.47%; Toxicity (%) [28]: 0%; GI % (10 μM) [28]: 89.81%
O=C1c2cc(Cl)ccc2-c2c(N3CCN(C4CCCC4)CC3)nc3ccccc3c21 [SJ-14, 9-Chloro-6-(4-cyclopentylpiperazin-1-yl)-11H-indeno[1,2-c]quinolin-11-one] | 107.58% | 101.56% | 96.53% | 100.03% | 85.84% | 98.72% | 97.90% | 92.80% | 75.18% | 98.37% | 93.83% | 82.96% | 101.46% | 97.48% | 95.06% | 103.04% | 102.74% | 96.85% | 95.17% | 93.06% | growth percentage [10]: 94.20%; growth percentage [11]: 96.87%; growth percentage [17]: 108.83%; growth percentage [20]: 97.09%; growth percentage [26]: 99.93%; growth percentage [27]: 110.73%; Toxicity (%) [28]: 0%; GI % (10 μM) [28]: 96.26%
O=C1c2cc(Cl)ccc2-c2c(N3CCN(c4ccccc4)CC3)nc3ccccc3c21 [SJ-16, 9-Chloro-6-(4-phenylpiperazin-1-yl)-11H-indeno[1,2-c]quinolin-11-one] | 104.82% | 90.89% | 87.29% | 68.58% | 65.13% | 80.10% | 81.41% | 83.34% | 53.31% | 98.40% | 80.23% | 73.80% | 97.04% | 99.23% | 88.40% | 105.45% | 89.83% | 78.58% | 93.52% | 93.14% | growth percentage [10]: 90.32%; growth percentage [11]: 60.91%; growth percentage [20]: 95.93%; growth percentage [24]: 115.61%; growth percentage [26]: 99.55%; growth percentage [27]: 102.96%; Toxicity (%) [28]: 0%; GI % (10 μM) [28]: 65.91%
COc1cccc(N2CCN(c3nc4ccccc4c4c3-c3ccc(Cl)cc3C4=O)CC2)c1 [SJ-20, 9-Chloro-6-(4-(3-methoxyphenyl)piperazin-1-yl)-11H-indeno[1,2-c]quinolin-11-one] | 103.93% | 101.22% | 92.15% | 93.51% | 80.87% | 79.75% | 81.67% | 87.22% | 77.46% | 93.79% | 86.59% | 79.81% | 101.76% | 96.87% | 105.27% | 99.09% | 101.57% | 86.02% | 93.78% | 91.16% | growth percentage [10]: 87.08%; growth percentage [11]: 90.05%; growth percentage [17]: 90.22%; growth percentage [20]: 95.05%; growth percentage [24]: 133.34%; growth percentage [26]: 100.75%; growth percentage [27]: 98.98%; Toxicity (%) [28]: 0%; GI % (10 μM) [28]: 98.05%
COc1nc2ccccc2c2c1-c1ccc(Cl)cc1C2=O [SJ-27, 6-Methoxy-9-chloro-11H-indeno[1,2-c]quinolin-11-one] | 106.24% | 99.70% | 96.23% | 90.83% | 96.92% | 95.89% | 103.51% | 93.26% | 71.98% | 98.20% | 90.65% | 74.61% | 98.27% | 98.51% | 96.35% | 108.77% | 92.95% | 119.79% | 89.25% | 98.89% | growth percentage [17]: 96.01%; growth percentage [29]: 97.67%; growth percentage [26]: 100.31%; growth percentage [27]: 121.06%
